In US20130123201A1, “MODULATION OF CYTOKINE-INDUCED CHRONIC INFLAMMATORY RESPONSES” (UNIVERSITY OF MANITOBA, priority 2010, published 2013):

System: phospho-DAPK (Ser308)
Assay: Immunoblot with phospho-DAPK (Ser308) antibody
Type: cell-based, human
Settings: within 15 min, compared to un-stimulated cells
Procedure: Immunoblots: Cell lysates were prepared in lysis buffer containing 20 mM Tris-HCl pH 7.5, 150 mM NaCl, 1 mM EDTA, 1 mM EGTA, 1 mM sodium fluoride, 1 mM sodium orthovanadate, 2.5 mM sodium pyrophosphate, protease inhibitor cocktail (Sigma-Aldrich) and 1% (v/v) Triton X-100. The lysates were electrophoretically resolved on a 4-12% NuPAGE® Bis-Tris gels (Invitrogen Corporation, Burlington, ON, Canda), followed by transfer to nitrocellulose membranes (Millipore, Canada). The membranes were subsequently probed with either phospho-p300 (Ser1834) polyclonal antibody, monoclonal antibody against phospho-DAPK (Ser308) or monoclonal antibody to glyceraldehyde-3-phosphate dehydrogenase (GAPDH) in TBST (20 mM Tris pH 7.5, 150 mM NaCl, 0.1% Tween 20) containing 5% skimmed milk powder. Affinity purified HRP-linked horse anti-mouse or goat anti-rabbit antibodies were used for detection as required. The membranes were development with Amersham ECL detection system (GE Healthcare, Baie d'Urfe QC, Canada) according to the manufacturer's instructions.
Immunoblots: Cell lysates were prepared in lysis buffer containing 20 mM Tris-HCl pH 7.5, 150 mM NaCl, 1 mM EDTA, 1 mM EGTA, 1 mM sodium fluoride, 1 mM sodium orthovanadate, 2.5 mM sodium pyrophosphate, protease inhibitor cocktail (Sigma-Aldrich Canada Inc.) and 1% (v/v) Triton X-100. […]

“IL-17: Recombinant human cytokine IL-17A/F from eBioscience, used as stimulant” was tested, and the “Phosphorylation of DAPK (Ser308) by immunoblot” value was “increased phosphorylation”.
